Test results from patent US12661410B2, “Compounds for targeted degradation of RET” (C4 Therapeutics, Inc., priority 2020, dated 2026).
Substitutions are numbered along the chain they refer to. Like-named read-outs stand apart in the source and are kept apart here. Blank lines part the entries; values can stand above or below the compound they belong to.

Key:
RET (658-1114) = target: T1, RET (658-1114) (Homo sapiens, UniProt P07949); test: HiBiT-Degradation, RET wild-type degradation assay (Nano-Glo HiBiT Lytic), 293T.144 cells; format: cell-based; settings: for Emax / DC50: 6.0 hours; for Emax: read-out: 293T.144 RET (658-1114) 6.0 hours (Emax); for DC50: read-out: 293T.144 RET (658-1114) 6.0 hours (DC50)
T1 construct: 658-1114; expressed in transfected cells; host or cells: 293T.144 (293T cells, generated in-house)
T1 sequence (P07949 658-1114): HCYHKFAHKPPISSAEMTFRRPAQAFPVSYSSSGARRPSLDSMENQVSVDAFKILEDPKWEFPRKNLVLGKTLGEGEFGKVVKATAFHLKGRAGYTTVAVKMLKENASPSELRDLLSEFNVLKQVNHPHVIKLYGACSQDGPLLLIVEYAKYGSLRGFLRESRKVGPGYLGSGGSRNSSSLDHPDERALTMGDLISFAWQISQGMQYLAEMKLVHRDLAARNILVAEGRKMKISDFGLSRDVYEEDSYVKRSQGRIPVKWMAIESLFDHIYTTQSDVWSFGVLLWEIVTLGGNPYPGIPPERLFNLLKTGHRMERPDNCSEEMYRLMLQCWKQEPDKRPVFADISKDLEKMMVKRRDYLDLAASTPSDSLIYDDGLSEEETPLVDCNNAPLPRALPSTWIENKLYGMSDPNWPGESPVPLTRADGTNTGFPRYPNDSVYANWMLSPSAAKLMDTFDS
How it was run: (§1)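 Degradation after 6 h compound exposure (top 10 μM, 11 half-log points, duplicates) measured by Nano-Glo HiBiT lytic luminescence. Cells: 293T.144 carrying wild-type and 293T.165 carrying G810R HiBiT-RET kinase domain; curves yield DC50 and Emax.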

RET(KD: 658-1114 G810R) = target: T2, RET(KD: 658-1114 G810R) (Homo sapiens, UniProt P07949, G810R); test: HiBiT-Degradation, RET G810R degradation assay (Nano-Glo HiBiT Lytic), 293T.165 cells; format: cell-based; settings: for Emax / DC50: 6.0 hours; for Emax: % remaining protein, read-out: 293T.165 RET(KD: 658-1114 G810R) 6.0 hours (Emax); for DC50: read-out: 293T.165 RET(KD: 658-1114 G810R) 6.0 hours (DC50)
T2 construct: 658-1114; expressed in transfected cells; host or cells: 293T.165 (293T cells, generated in-house)
T2 sequence (P07949 658-1114 G810R): T1 sequence (P07949 658-1114) with G153R
How it was run: as §1

[1] = half-maximal degradation concentration

SMILES: CCC1(C(=O)NC2CCC2)CCN(c2ccc(-c3nc(-c4cnn([C@H]5C[C@](F)(CN6CCN(c7ccc(N[C@@H]8CCC(=O)NC8=O)cc7F)CC6)C5)c4)cn4ncc(C#N)c34)cn2)CC1 [Compound 187, 1-[5-[3-cyano-6-[1-[3-[[4-[4-[[(3R)-2,6-dioxo-3-piperidyl]amino]-2-fluoro-phenyl]piperazin-1-yl]methyl]-3-fluoro-cyclobutyl]pyrazol-4-yl]pyrazolo[1,5-a]pyrazin-4-yl]-2-pyridyl]-N-cyclobutyl-4-ethyl-piperidine-4-carboxamide]
293T.144 RET (658-1114) 6.0 hours (IP) [nM] (RET (658-1114)): ++++ (<50 nM = ++++)
Emax (RET (658-1114); % remaining protein): < 30%
DC50 (RET (658-1114); [1]): < 0.05 µM
293T.165 RET(KD: 658-1114 G810R) 6.0 hours (IP) [nM] (RET(KD: 658-1114 G810R)): ++++ (<50 nM = ++++)
Emax (RET(KD: 658-1114 G810R)): < 30%
DC50 (RET(KD: 658-1114 G810R); [1]): < 0.05 µM

SMILES: COc1cc(N2CCN([C@H]3CC[C@H](n4cc(-c5cn6ncc(C#N)c6c(-c6ccc(N7CC8CC(C7)N8Cc7ccccc7S(C)(=O)=O)nc6)n5)cn4)CC3)CC2)c(F)cc1NC1CCC(=O)NC1=O (some centres unmarked) [Compound 217, 6-[1-[4-[4-[4-[(2,6-dioxo-3-piperidyl)amino]-2-fluoro-5-methoxy-phenyl]piperazin-1-yl]cyclohexyl]pyrazol-4-yl]-4-[6-[6-[(2-methylsulfonylphenyl)methyl]-3,6-diazabicyclo[3.1.1]heptan-3-yl]-3-pyridyl]pyrazolo[1,5-a]pyrazine-3-carbonitrile]
293T.144 RET (658-1114) 6.0 hours (IP) [nM] (RET (658-1114)): ++++ (<50 nM = ++++)
Emax (RET (658-1114); % remaining protein): < 30%
DC50 (RET (658-1114); [1]): < 0.05 µM
293T.165 RET(KD: 658-1114 G810R) 6.0 hours (IP) [nM] (RET(KD: 658-1114 G810R)): ++++ (<50 nM = ++++)
Emax (RET(KD: 658-1114 G810R)): < 30%
DC50 (RET(KD: 658-1114 G810R); [1]): < 0.1 µM

SMILES: CC(C)NC(=O)C1(C)CCN(c2ccc(-c3cc(-c4ccc(N5CCN(C(=O)CN6CCC(c7ccc(OC8CCC(=O)NC8=O)cc7)CC6)CC5)cc4)cn4ncc(C#N)c34)cn2)CC1 (centres unmarked) [Compound 48, 1-[5-[3-cyano-6-[4-[4-[2-[4-[4-[(2,6-dioxo-3-piperidyl)oxy]phenyl]-1-piperidyl]acetyl]piperazin-1-yl]phenyl]pyrazolo[1,5-a]pyridin-4-yl]-2-pyridyl]-N-isopropyl-4-methyl-piperidine-4-carboxamide]
293T.144 RET (658-1114) 6.0 hours (IP) [nM] (RET (658-1114); HiBiT-Degradation): ++++ (< 50 nM = ++++)
DC50 (RET (658-1114); HiBiT-Degradation): < 0.05 µM
Emax (RET (658-1114); HiBiT-Degradation): < 30%
Emax (RET(KD: 658-1114 G810R)): < 30%
DC50 (RET(KD: 658-1114 G810R); [1]): < 0.1 µM
293T.165 RET(KD: 658-1114 G810R) 6.0 hours (Emax) (RET(KD: 658-1114 G810R); HiBiT-Degradation): ++++ (< 30% = ++++)
293T.165 RET(KD: 658-1114 G810R) 6.0 hours (IP) [nM] (RET(KD: 658-1114 G810R); HiBiT-Degradation): ++++ (< 50 nM = ++++)
DC50 (RET(KD: 658-1114 G810R); HiBiT-Degradation): < 0.1 µM

Other lines, results leading:

Emax (RET (658-1114); % remaining protein): < 30%
DC50 (RET (658-1114); [1]): < 0.05 µM
Emax (RET(KD: 658-1114 G810R)): < 30%
DC50 (RET(KD: 658-1114 G810R); [1]): < 0.05 µM
SMILES: CCC1(C(=O)NC2CCC2)CCN(c2ccc(-c3nc(-c4cnn([C@H]5CC[C@H](N6CCC(c7ccc(NC8CCC(=O)NC8=O)cc7Cl)CC6)CC5)c4)cn4ncc(C#N)c34)cn2)CC1 (single isomer, unassigned) [Compound 133, 1-[5-[6-[1-[4-[4-[2-chloro-4-[(2,6-dioxo-3-piperidyl)amino]phenyl]-1-piperidyl]cyclohexyl]pyrazol-4-yl]-3-cyano-pyrazolo[1,5-a]pyrazin-4-yl]-2-pyridyl]-N-cyclobutyl-4-ethyl-piperidine-4-carboxamide]

293T.144 RET (658-1114) 6.0 hours (IP) [nM] (RET (658-1114); HiBiT-Degradation): ++++ (< 50 nM = ++++)
DC50 (RET (658-1114); HiBiT-Degradation): < 0.05 µM
Emax (RET (658-1114); HiBiT-Degradation): < 30%
Emax (RET(KD: 658-1114 G810R)): < 50%
DC50 (RET(KD: 658-1114 G810R); [1]): < 0.05 µM
293T.165 RET(KD: 658-1114 G810R) 6.0 hours (Emax) (RET(KD: 658-1114 G810R); HiBiT-Degradation): +++ (<50% = +++)
293T.165 RET(KD: 658-1114 G810R) 6.0 hours (IP) [nM] (RET(KD: 658-1114 G810R); HiBiT-Degradation): ++++ (< 50 nM = ++++)
DC50 (RET(KD: 658-1114 G810R); HiBiT-Degradation): < 0.05 µM
SMILES: CC(C)NC(=O)C1(C)CCN(c2ccc(-c3cc(-c4cnn(C5CCN(C(=O)CN6CCC(c7ccc(NC8CCC(=O)NC8=O)cc7F)CC6)CC5)c4)cn4ncc(C#N)c34)cn2)CC1 (centres unmarked) [Compound 2, 1-(5-(3-Cyano-6-(1-(1-(2-(4-(4-((2,6-dioxopiperidin-3-yl)amino)-2-fluorophenyl)piperidin-1-yl)acetyl)piperidin-4-yl)-1H-pyrazol-4-yl)pyrazolo[1,5-a]pyridin-4-yl)pyridin-2-yl)-N-isopropyl-4-methylpiperidine-4-carboxamide]
